The values that follow come from ChEMBL document CHEMBL1649426 (J Med Chem, 2011).

pEC50, pIC50, pKi: −log10 of the molar value.

The test system of assay [1] is Human immunodeficiency virus 1. Nature of the assay: Antiviral activity against HIV1 LAI infected in human MT2 cells assessed as inhibition of virus-induced cytopathic effect by MTT assay. Type of assay: functional, organism-based. Particulars: Human immunodeficiency virus 1, LAI. (Cytopathic effects are the visible damage that an infection or toxin causes in cultured cells.)

The test system of assay [2] is Human immunodeficiency virus 1. Nature of the assay: Antiviral activity against wild type HIV-1 ERS104 pre infected in human PHA-PBM cells assessed as inhibition of p24 Gag protein production. Conditions: Human immunodeficiency virus 1, ERS104pre, PBMC. It counts as functional, organism-based.
For assay [3], the system named is Human immunodeficiency virus 1. The assay is described as follows: Antiviral activity against HIV-1 MDR/JSL infected in human PHA-PBM cells assessed as inhibition of p24 Gag protein production. It counts as functional, organism-based. Conditions: Human immunodeficiency virus 1, MDR/JSL, PBMC.
Assay [4] has as its system Human immunodeficiency virus 1. Nature of the assay: Antiviral activity against HIV-1 MDR/B infected in human PHA-PBM cells assessed as inhibition of p24 Gag protein production. Type of assay: functional, organism-based. Conditions: Human immunodeficiency virus 1, MDR/B, PBMC.
Assay [5] deals with Human immunodeficiency virus 1. The assay is described as follows: Antiviral activity against HIV-1 MDR/C infected in human PHA-PBM cells assessed as inhibition of p24 Gag protein production. It counts as functional, organism-based. Conditions: Human immunodeficiency virus 1, MDR/C, PBMC.
The target in the next assay is Protease (Human immunodeficiency virus 1, UniProt Q9YQ12). Nature of the assay: Inhibition of HIV1 protease. Type of assay: single protein.
Chain of Protease (Q9YQ12 whole entry): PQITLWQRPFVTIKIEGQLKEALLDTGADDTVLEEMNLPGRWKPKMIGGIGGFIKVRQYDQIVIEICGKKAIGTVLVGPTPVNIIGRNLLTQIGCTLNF
Assay [6] has as its system Human immunodeficiency virus 1. Nature of the assay: Antiviral activity against HIV-1 MDR/TM infected in human PHA-PBM cells assessed as inhibition of p24 Gag protein production. Conditions: Human immunodeficiency virus 1, MDR/TM, PBMC. Type of assay: functional, organism-based.
The subject of assay [7] is Human immunodeficiency virus 1. Nature of the assay: Antiviral activity against HIV-1 MDR/G infected in human PHA-PBM cells assessed as inhibition of p24 Gag protein production. Conditions: Human immunodeficiency virus 1, MDR/G, PBMC. It counts as functional, organism-based.
Assay [8] concerns Human immunodeficiency virus 1. The assay is described as follows: Antiviral activity against HIV-1 MDR/MM infected in human PHA-PBM cells assessed as inhibition of p24 Gag protein production. It counts as functional, organism-based. Particulars: Human immunodeficiency virus 1, MDR/MM, PBMC.

`CC(C)(C)NC(=O)[C@@H]1C[C@@H]2CCCC[C@@H]2CN1C[C@@H](O)[C@H](Cc1ccccc1)NC(=O)[C@H](CC(N)=O)NC(=O)c1ccc2ccccc2n1`: in [1], the pIC50 – broadly, the IC50 on a negative log10 scale, so that one unit is a factor of ten – is 7.82.
With `CC(C)CN(C[C@@H](O)[C@H](Cc1ccccc1)NC(=O)O[C@H]1CCOC1)S(=O)(=O)c1ccc(N)cc1`, in assay [1], the pIC50 is 7.52.
Consider `COc1ccc(S(=O)(=O)N(CC(C)C)C[C@@H](O)[C@H](Cc2ccccc2)NC(=O)O[C@H]2CCO[C@H]3OCC[C@H]32)cc1`, for which the pEC50 (as a rule, −log10 of the EC50, conventionally taken in molar units) in assay [2] is 8.72; in assay [3], 7.56; in assay [4], 7.84; in [5], 8.43; in [6], 7.56; in [7] it was 8.59. In assay [8], the pEC50 was 8.30. Also, the pIC50 in assay [1] is 9.30. For the same compound, the pKi (commonly the Ki on a negative log10 scale, so that one unit is a factor of ten) at Protease was 11.57.
Take `COc1ccc(S(=O)(=O)N(CC(C)C)C[C@@H](O)[C@H](Cc2ccccc2)NC(=O)O[C@@H]2CCO[C@@H]3OCC[C@@H]32)cc1`: in [1], the pIC50 was 7.72. Moreover, the pKi on Protease is 10.17.
As for `COc1ccc(S(=O)(=O)N(CC(C)C)C[C@@H](O)[C@H](Cc2ccccc2)NC(=O)O[C@H]2CCC[C@H]3OCC[C@@H]23)cc1`, the pIC50 in [1] was 8.10. For the same compound, at Protease, the pKi is 11.30.
On Protease, `COc1ccc(S(=O)(=O)N(CC(C)C)C[C@@H](O)[C@H](Cc2ccccc2)NC(=O)O[C@H]2CCO[C@H]3CCC[C@H]32)cc1` had a pKi of 8.84.
In the case of `COc1ccc(S(=O)(=O)N(CC(C)C)C[C@@H](O)[C@H](Cc2ccccc2)NC(=O)O[C@H]2CCC[C@H]3CCC[C@H]32)cc1`, the pIC50 in assay [1] was less than 6.00. On Protease, this compound gave a pKi of 8.05.
On the same counts, the results for `COc1ccc(S(=O)(=O)N(CC(C)C)C[C@@H](O)[C@H](Cc2ccccc2)NC(=O)O[C@H]2CCO[C@H]3COC[C@H]32)cc1` are less than 6.00 and 8.28.
`COc1ccc(S(=O)(=O)N(CC(C)C)C[C@@H](O)[C@H](Cc2ccccc2)NC(=O)O[C@H]2CO[C@H]3OCC[C@H]3C2)cc1`: the pKi on Protease was 9.96.
Take `CC(C)CN(C[C@@H](O)[C@H](Cc1ccccc1)NC(=O)O[C@H]1CCO[C@H]2OCC[C@H]21)S(=O)(=O)c1ccc(N)cc1`: the pIC50 in assay [1] was 8.19. Moreover, the pKi on Protease was 11.00.
Consider `CC(C)CN(C[C@@H](O)[C@H](Cc1ccccc1)NC(=O)O[C@H]1CCO[C@H]2OCC[C@H]21)S(=O)(=O)c1ccc(CO)cc1`, for which the pIC50 in assay [1] is 8.35. For the same compound, the pKi at Protease was 10.07.
For `COC(=O)N[C@H](C(=O)N[C@@H](Cc1ccccc1)[C@@H](O)CN(Cc1ccc(-c2ccccn2)cc1)NC(=O)[C@@H](NC(=O)OC)C(C)(C)C)C(C)(C)C` [ATAZANAVIR], the pEC50 is 8.57 in assay [2]; 6.53 in [3]; 6.33 in assay [4]; 7.41 in assay [5]; 7.12 in [6]; 7.72 in assay [7]. Besides, the pEC50 in assay [8] is 6.69.
Turning to `Cc1cccc(C)c1OCC(=O)N[C@@H](Cc1ccccc1)[C@@H](O)C[C@H](Cc1ccccc1)NC(=O)[C@H](C(C)C)N1CCCNC1=O` [LOPINAVIR], the pEC50 in [3] and in assay [4] was less than 6.00 throughout.
